Test results from ChEMBL document CHEMBL1149961, “Design, synthesis, activity, and structure of a novel class of matrix metalloproteinase inhibitors containing a heterocyclic P2-P3 amide bond isostere” (Bioorg Med Chem Lett, 1996).

Assays:
[1] = biological target: T1, Matrilysin (Homo sapiens, UniProt P09237); assay: Inhibition of matrilysin, matrix metalloprotease-7
T1 sequence (P09237 whole entry): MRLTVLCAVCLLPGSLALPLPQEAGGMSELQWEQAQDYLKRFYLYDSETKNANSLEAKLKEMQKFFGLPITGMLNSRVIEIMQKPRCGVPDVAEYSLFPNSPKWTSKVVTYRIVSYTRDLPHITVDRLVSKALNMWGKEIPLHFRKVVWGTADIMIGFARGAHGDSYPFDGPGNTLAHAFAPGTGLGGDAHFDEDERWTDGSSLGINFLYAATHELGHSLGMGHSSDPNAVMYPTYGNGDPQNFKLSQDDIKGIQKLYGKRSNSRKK

[2] = biological target: T2, Interstitial collagenase (Homo sapiens, UniProt P03956); assay: Inhibition of human fibroblast collagenase, matrix metalloprotease-1
T2 sequence (P03956 whole entry): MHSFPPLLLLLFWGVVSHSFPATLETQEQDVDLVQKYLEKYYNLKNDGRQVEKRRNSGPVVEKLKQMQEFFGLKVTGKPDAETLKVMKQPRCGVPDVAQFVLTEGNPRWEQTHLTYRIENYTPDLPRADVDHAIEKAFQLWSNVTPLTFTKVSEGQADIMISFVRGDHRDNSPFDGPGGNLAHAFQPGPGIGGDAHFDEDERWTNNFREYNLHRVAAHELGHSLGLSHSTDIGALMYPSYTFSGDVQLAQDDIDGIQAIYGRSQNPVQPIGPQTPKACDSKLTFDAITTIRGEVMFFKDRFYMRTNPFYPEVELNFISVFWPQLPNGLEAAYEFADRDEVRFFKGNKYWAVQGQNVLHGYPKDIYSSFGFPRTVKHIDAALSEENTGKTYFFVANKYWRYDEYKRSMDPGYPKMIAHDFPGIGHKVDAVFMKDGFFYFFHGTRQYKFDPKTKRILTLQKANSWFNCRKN

[3] = biological target: Stromelysin-1 (Homo sapiens, UniProt P08254); assay: Inhibition of human fibroblast stromelysin, matrix metalloprotease-3
Stromelysin-1, sequence (P08254 whole entry): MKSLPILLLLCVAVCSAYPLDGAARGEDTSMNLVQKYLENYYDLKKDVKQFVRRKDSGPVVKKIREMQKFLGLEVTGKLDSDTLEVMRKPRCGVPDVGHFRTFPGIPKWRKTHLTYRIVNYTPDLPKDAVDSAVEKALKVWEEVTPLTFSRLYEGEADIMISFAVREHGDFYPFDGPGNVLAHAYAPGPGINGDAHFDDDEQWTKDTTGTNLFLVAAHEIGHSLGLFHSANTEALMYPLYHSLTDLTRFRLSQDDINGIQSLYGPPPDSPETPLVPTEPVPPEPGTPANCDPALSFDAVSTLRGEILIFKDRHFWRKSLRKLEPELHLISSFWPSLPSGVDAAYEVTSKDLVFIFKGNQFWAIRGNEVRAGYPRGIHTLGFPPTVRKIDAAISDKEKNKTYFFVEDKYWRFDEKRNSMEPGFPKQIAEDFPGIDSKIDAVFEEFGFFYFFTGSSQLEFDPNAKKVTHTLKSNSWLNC

IC50 [1] [nM]	IC50 [2] [nM]	IC50 [3] [nM]	SMILES
33	40	68	CC(C)C[C@H](CC(=O)NO)C(=O)N[C@@H](CC(C)C)c1nc2cc(Cl)c(Cl)cc2[nH]1
50	9	320	CC(C)C[C@H](CC(=O)NO)C(=O)N[C@@H](CC(C)C)c1ncc[nH]1
2	29	8	CC(C)C[C@H](CC(=O)NO)C(=O)N[C@@H](CC(C)C)c1nc2ccccc2[nH]1
70	3500	320	COC(=O)c1[nH]c([C@H](CC(C)C)NC(=O)[C@@H](CC(=O)NO)CC(C)C)nc1-c1ccccc1
3.1	480	5900	CC(C)C[C@H](NC(=O)[C@@H](CC(=O)NO)C1CCCCC1)c1nc(-c2ccccc2)c[nH]1
10	7	20	CC(C)C[C@H](CC(=O)NO)C(=O)N[C@@H](CC(C)C)c1nc2cc(C(F)(F)F)ccc2[nH]1
1	170	112	CC(C)C[C@H](CC(=O)NO)C(=O)N[C@@H](CC(C)C)c1nc(-c2ccccc2)c[nH]1
1	3	5	COC(=O)c1ccc2nc([C@H](CC(C)C)NC(=O)[C@@H](CC(=O)NO)CC(C)C)[nH]c2c1
18	18	280	CC(C)C[C@H](CC(=O)NO)C(=O)N[C@@H](Cc1c[nH]c2ccccc12)c1ncc[nH]1
0.23	6.9	0.8	COC(=O)c1ccc(NC(=O)[C@H](CC(C)C)NC(=O)[C@@H](CC(=O)NO)CC(C)C)cc1
10	22	29	CC(C)C[C@H](CC(=O)NO)C(=O)N[C@@H](Cc1c[nH]c2ccccc12)c1nc2ccccc2[nH]1
10	6	30	COc1ccc2nc([C@H](CC(C)C)NC(=O)[C@@H](CC(=O)NO)CC(C)C)[nH]c2c1
